Measured values from ChEMBL document CHEMBL1201862, “PubChem BioAssay data set” (2004).
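Five concentrations, 48 hours, 96-well plates. GI50: concentration for 50% inhibition of growth.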 Calls of active or inactive are those of the source. Rule as the data show it: active = GI50 up to about 1.1 µM and inactive = higher.

Tests used:
Test in all cases: DTP human tumour cell line panel, 48 h
[1] = test system: 786-0
[2] = test system: A549
[3] = test system: ACHN
[4] = test system: BT-549
[5] = test system: CAKI-1
[6] = test system: CCRF-CEM
[7] = test system: COLO 205
[8] = test system: DU-145
[9] = test system: EKVX
[10] = test system: HCC 2998
[11] = test system: HCT-116
[12] = test system: HCT-15
[13] = test system: HL-60
[14] = test system: HOP-62
[15] = test system: HOP-92
[16] = test system: HT-29
[17] = test system: Hs-578T
[18] = test system: K562
[19] = test system: KM12
[20] = test system: LOX IMVI
[21] = test system: M14
[22] = test system: MCF7
[23] = test system: MDA-MB-231
[24] = test system: MDA-MB-435
[25] = test system: MDA-N
[26] = test system: MOLT-4
[27] = test system: Malme-3M
[28] = test system: NCI-H226
[29] = test system: NCI-H23
[30] = test system: NCI-H460
[31] = test system: NCI-H522
[32] = test system: NCI/ADR-RES
[33] = test system: OVCAR-3
[34] = test system: OVCAR-5
[35] = test system: OVCAR-8
[36] = test system: PC-3
[37] = test system: RPMI-8226
[38] = test system: RXF 393
[39] = test system: SF-268
[40] = test system: SF-295
[41] = test system: SF-539
[42] = test system: SK-MEL-28
[43] = test system: SK-MEL-2
[44] = test system: SK-MEL-5
[45] = test system: SK-OV-3
[46] = test system: SN12C
[47] = test system: SNB-19
[48] = test system: SNB-75
[49] = test system: SR
[50] = test system: SW-620
[51] = test system: T47D
[52] = test system: U-251
[53] = test system: UACC-257
[54] = test system: UACC-62
[55] = test system: UO-31
[56] = test system: IGROV-1
[57] = test system: OVCAR-4
[58] = test system: TK-10

For `CC(=O)OCC(OC(C)=O)C(OC(C)=O)C(OC(C)=O)C(/C=N\Nc1nc2ccccc2c(=O)[nH]1)OC(C)=O` (stereo unspecified), the GI50 [1] was > 100 µM (inactive), the GI50 [2] was > 100 µM (inactive) and the GI50 [3] was > 100 µM (inactive). The GI50 [4] was > 100 µM (inactive), the GI50 [5] was > 100 µM (inactive) and the GI50 [6] was > 100 µM (inactive). For the same compound, the GI50 [7] was > 100 µM (inactive), the GI50 [8] was > 100 µM (inactive) and the GI50 [9] was 54.7 µM (inactive). The GI50 [10] was > 100 µM (inactive), the GI50 [11] was > 100 µM (inactive) and the GI50 [12] was greater than 100 µM. For the same compound, the GI50 [13] was > 100 µM (inactive), the GI50 [14] was > 100 µM (inactive) and the GI50 [15] was > 100 µM (inactive). The GI50 [16] was > 100 µM (inactive), the GI50 [17] was > 100 µM (inactive) and the GI50 [18] was > 100 µM (inactive). For the same compound, the GI50 [19] was 23.6 µM (inactive), the GI50 [20] was > 100 µM (inactive) and the GI50 [21] was > 100 µM (inactive). The GI50 [22] was > 100 µM (inactive), the GI50 [23] was > 100 µM (inactive) and the GI50 [24] was > 100 µM (inactive). For the same compound, the GI50 [25] was > 100 µM (inactive), the GI50 [26] was > 100 µM (inactive) and the GI50 [27] was > 100 µM (inactive). For the same compound, the GI50 [28] was > 100 µM (inactive), the GI50 [29] was > 100 µM (inactive) and the GI50 [30] was > 100 µM (inactive). The GI50 [31] was > 100 µM (inactive), the GI50 [32] was > 100 µM (inactive) and the GI50 [33] was > 100 µM (inactive). For the same compound, the GI50 [34] was > 100 µM (inactive), the GI50 [35] was > 100 µM (inactive) and the GI50 [36] was > 100 µM (inactive). The GI50 [37] was > 100 µM (inactive), the GI50 [38] was > 100 µM (inactive) and the GI50 [39] was > 100 µM (inactive). For the same compound, the GI50 [40] was > 100 µM (inactive), the GI50 [41] was > 100 µM (inactive) and the GI50 [42] was > 100 µM (inactive). The GI50 [43] was > 100 µM (inactive), the GI50 [44] was > 100 µM (inactive) and the GI50 [45] was > 100 µM (inactive). The GI50 [46] was > 100 µM (inactive), the GI50 [47] was > 100 µM (inactive) and the GI50 [48] was 27.6 µM (inactive). For the same compound, the GI50 [49] was > 100 µM (inactive), the GI50 [50] was > 100 µM (inactive) and the GI50 [51] was > 100 µM (inactive). The GI50 [52] was > 100 µM (inactive), the GI50 [53] was > 100 µM (inactive) and the GI50 [54] was > 100 µM (inactive). For the same compound, the GI50 [55] was > 100 µM (inactive).
`CCC1(CC)C(=O)NN(C(=O)c2ccc(Cl)cc2)C1=O` was tested, and the GI50 [1] was > 100 µM (inactive), the GI50 [2] was > 100 µM (inactive) and the GI50 [3] was > 100 µM (inactive). For the same compound, the GI50 [4] was > 100 µM (inactive), the GI50 [5] was > 100 µM (inactive) and the GI50 [6] was > 100 µM (inactive). The GI50 [7] was > 100 µM (inactive), the GI50 [8] was > 100 µM (inactive) and the GI50 [9] was > 100 µM (inactive). For the same compound, the GI50 [10] was > 100 µM (inactive), the GI50 [11] was > 100 µM (inactive) and the GI50 [12] was greater than 100 µM. The GI50 [13] was > 100 µM (inactive), the GI50 [14] was > 100 µM (inactive) and the GI50 [16] was > 100 µM (inactive). For the same compound, the GI50 [17] was > 100 µM (inactive), the GI50 [56] was > 100 µM (inactive) and the GI50 [18] was > 100 µM (inactive). For the same compound, the GI50 [19] was > 100 µM (inactive), the GI50 [20] was > 100 µM (inactive) and the GI50 [21] was > 100 µM (inactive). The GI50 [22] was > 100 µM (inactive), the GI50 [23] was > 100 µM (inactive) and the GI50 [24] was > 100 µM (inactive). The GI50 [25] was > 100 µM (inactive), the GI50 [26] was > 100 µM (inactive) and the GI50 [27] was 0.23 µM (active). For the same compound, the GI50 [28] was > 100 µM (inactive), the GI50 [29] was > 100 µM (inactive) and the GI50 [30] was > 100 µM (inactive). For the same compound, the GI50 [31] was 32.1 µM (inactive), the GI50 [32] was > 100 µM (inactive) and the GI50 [33] was > 100 µM (inactive). The GI50 [57] was > 100 µM (inactive), the GI50 [34] was > 100 µM (inactive) and the GI50 [35] was > 100 µM (inactive). For the same compound, the GI50 [36] was > 100 µM (inactive), the GI50 [37] was > 100 µM (inactive) and the GI50 [38] was > 100 µM (inactive). For the same compound, the GI50 [39] was > 100 µM (inactive), the GI50 [40] was > 100 µM (inactive) and the GI50 [42] was > 100 µM (inactive). The GI50 [43] was > 100 µM (inactive), the GI50 [44] was > 100 µM (inactive) and the GI50 [45] was > 100 µM (inactive). For the same compound, the GI50 [46] was > 100 µM (inactive), the GI50 [47] was > 100 µM (inactive) and the GI50 [48] was > 100 µM (inactive). The GI50 [49] was > 100 µM (inactive), the GI50 [50] was > 100 µM (inactive) and the GI50 [51] was > 100 µM (inactive). The GI50 [58] was > 100 µM (inactive), the GI50 [52] was > 100 µM (inactive) and the GI50 [53] was > 100 µM (inactive). For the same compound, the GI50 [54] was > 100 µM (inactive) and the GI50 [55] was > 100 µM (inactive).
With `O=S1(=O)C[C@H](NCc2ccccc2)[C@H](NCc2ccccc2)C1` the GI50 [2] was > 100 µM (inactive), the GI50 [3] was > 100 µM (inactive) and the GI50 [4] was 94.2 µM (inactive). For the same compound, the GI50 [5] was > 100 µM (inactive), the GI50 [6] was 29.4 µM (inactive) and the GI50 [7] was > 100 µM (inactive). The GI50 [8] was > 100 µM (inactive), the GI50 [9] was > 100 µM (inactive) and the GI50 [10] was > 100 µM (inactive). The GI50 [11] was > 100 µM (inactive), the GI50 [14] was > 100 µM (inactive) and the GI50 [15] was > 100 µM (inactive). For the same compound, the GI50 [16] was > 100 µM (inactive), the GI50 [17] was 73.3 µM (inactive) and the GI50 [56] was > 100 µM (inactive). For the same compound, the GI50 [18] was 54.5 µM (inactive), the GI50 [19] was > 100 µM (inactive) and the GI50 [20] was > 100 µM (inactive). For the same compound, the GI50 [21] was > 100 µM (inactive), the GI50 [22] was 83.8 µM (inactive) and the GI50 [23] was > 100 µM (inactive). For the same compound, the GI50 [24] was > 100 µM (inactive), the GI50 [25] was > 100 µM (inactive) and the GI50 [26] was 23.8 µM (inactive). For the same compound, the GI50 [27] was > 100 µM (inactive), the GI50 [28] was > 100 µM (inactive) and the GI50 [29] was > 100 µM (inactive). The GI50 [30] was > 100 µM (inactive), the GI50 [31] was 17.6 µM (inactive) and the GI50 [32] was 61.5 µM (inactive). The GI50 [33] was > 100 µM (inactive), the GI50 [57] was > 100 µM (inactive) and the GI50 [34] was > 100 µM (inactive). For the same compound, the GI50 [35] was 96.2 µM (inactive), the GI50 [36] was 56.5 µM (inactive) and the GI50 [37] was 22.8 µM (inactive). The GI50 [38] was > 100 µM (inactive), the GI50 [39] was > 100 µM (inactive) and the GI50 [40] was > 100 µM (inactive). For the same compound, the GI50 [41] was > 100 µM (inactive), the GI50 [42] was > 100 µM (inactive) and the GI50 [43] was > 100 µM (inactive). The GI50 [44] was > 100 µM (inactive), the GI50 [45] was > 100 µM (inactive) and the GI50 [46] was > 100 µM (inactive). For the same compound, the GI50 [47] was > 100 µM (inactive), the GI50 [48] was > 100 µM (inactive) and the GI50 [49] was 18.4 µM (inactive). For the same compound, the GI50 [50] was > 100 µM (inactive), the GI50 [51] was 30.8 µM (inactive) and the GI50 [58] was > 100 µM (inactive). For the same compound, the GI50 [52] was 93.8 µM (inactive), the GI50 [53] was > 100 µM (inactive) and the GI50 [54] was > 100 µM (inactive). The GI50 [55] was > 100 µM (inactive).
